What was measured:
COVID-19 patients (PCS) = assay: PCS score at 6 months after COVID-19 in PCS risk factor population, COVit-2; details: PCS risk factor population (more than 5 predictors), N = 70
Description: In this PCS score, 12 long-term symptom complexes (fatigue, cough/wheezing, neurological ailments, joint/muscle pain, ear-nose-throat ailments, gastrointestinal ailments, sleeping disturbance, exercise intolerance, infection signs, chemosensory deficits, chest pain and dermatological ailments) are combined with different weights.
In order to characterize a relevant subpopulation of the risk factor population as defined above that was additionally at risk for the development of PCS, baseline characteristics and symptoms of all available patients of the placebo population (n=425) were used to identify predictors for a PCS score of ≥5 at month 6 with a significance threshold of P<0.05. These predictors were the following: • medical history: chronic obstructive pulmonary disease, organ transplantation, depression, other chronic diseases, permanent intake of medication; • symptoms from the onset of COVID-19 until the trial baseline: shortness of breath, whistling/wheezing breathing, dizziness, vomiting, conjunctivitis; • at baseline: shortness of breath, whistling/wheezing breathing, dizziness, conjunctivitis, chills, muscle pain, limb pain, limitation of activity (a score of 2 in the WHO scale of COVID-19 severity developed in 2020; https://apps.who.int/iris/rest/bitstreams/1266940/retrieve, last accessed on 20 Mar. […]

[1] = test system: COVID-19 patients (PCS symptoms); assay: Patient Health Questionnaire Depression (PHQ-8) at 6-month follow-up, COVit-2 pilot population; format: in vivo, human; details: pilot population n=50
Description: (§1) In the monocentric, randomized, double-blind, prospective, placebo-controlled dietary intervention trial COVit-2 (DRKS00021214; NCT04751604) conducted at the Department of Internal Medicine I of the University Medical Center Schleswig-Holstein, Campus Kiel (Germany), outpatients with early symptomatic COVID-19 (up to 7 days after their first positive SARS-CoV-2 PCR test) in domestic quarantine were recruited from February 2021 to January 2022. […]
(§2) Approximately 6 months after infection, patients were contacted for follow-up interviews and a large battery of questionnaires and tests including antibody level measurements. […] A validated smell test (University of Pennsylvania Smell Identification Test™; Sensonics/MediSense) was performed by the patient and recorded as patient-reported outcome by a paper questionnaire. Questionnaires on olfactory and gustatory abilities (incl. the Self-reported Mini Olfactory Questionnaire, Self-MOQ, and the Questionnaire of Olfactory Disorders, QOD), respiration (Multidimensional Dyspnea Profile, MDP), mental state (Patient Health Questionnaire Depression, PHQ-8; Generalised Anxiety Disorder 7, GAD-7; Perceived Stress Scale, PSS; Brief Resilience Scale, BRS), sleep quality (Pittsburgh Sleep Quality Index, PSQI) and fatigue (Multidimensional Fatigue Inventory, MFI) were recorded as patient-reported outcomes by paper questionnaires. […]

COVID-19 patients [2] = details: week 2; of 92 patients treated with nicotinamide
[3] = test system: COVID-19 patients (PCS symptoms); assay: Cognition test T3MS at 6-month follow-up, COVit-2 pilot population; format: in vivo, human
Description: as §1, §2

[4] = test system: COVID-19 patients (PCS symptoms); assay: Perceived Stress Scale (PSS) at 6-month follow-up, COVit-2 pilot population; format: in vivo, human; details: pilot population n=50
Description: as §1, §2

[5] = test system: antibodies directed against the nucleocapsid (N) protein of SARS-CoV-2; assay: Anti-N antibody levels (AProof Duo Test ELISA) at 6-month follow-up, COVit-2 trial; format: in vivo, human
[6] = test system: antibodies directed against the spike (S) protein of SARS-CoV-2; assay: Anti-S antibody levels (AProof Duo Test ELISA) at 6-month follow-up, COVit-2 trial; format: in vivo, human
Description: (§3) In the monocentric, randomized, double-blind, prospective, placebo-controlled dietary intervention trial COVit-2 (DRKS00021214; NCT04751604) conducted at the Department of Internal Medicine I of the University Medical Center Schleswig-Holstein, Campus Kiel (Germany), outpatients with early symptomatic COVID-19 (up to 7 days after their first positive SARS-CoV-2 PCR test) in domestic quarantine were recruited from February 2021 to January 2022. As the vaccinations against SARS-CoV-2 became available to the broader public only after several hundred patients had already been recruited into the COVit-2 trial, partly or fully vaccinated patients were excluded from participation to maintain the same inclusion population and ensure formal comparability of all patients within the trial. However, there is no reason or evidence to assume that the fundamental metabolic and microbiota-targeting effects of nicotinamide could be any different in symptomatic COVID-19 patients with or without prior vaccination.
(§4) For details of the trial, see Wätzig & Schreiber 2021, PCT/EP2021/083138. Patients were randomized to oral self-administration (once daily with breakfast for 28 days) of either a combination of two different nicotinamide tablets (one conventional 500-mg immediate-release nicotinamide tablet and one novel 500-mg controlled-ileocolonic-release nicotinamide [CICR-NAM]tablet, which ensures prolonged and continuous intestinal exposure to nicotinamide) or matching placebo tablets. The entire trial was conducted remotely. Patients registered online and were contacted by the study team to check their eligibility and to supply the written patient information and informed consent forms. After informed consent, patients were called for baseline data acquisition (week 0) and subsequently at week 2, week 4 and week 6. The queried baseline information included personal and demographic data, smoking status, comorbidities, concomitant administration of dietary supplements or medicaments as well as COVID-19 symptoms. At weeks 2, 4 and 6, regular intake of the trial supplements and concomitant supplements and medicaments, respectively, was queried as well as the current COVID-19 symptoms and disease course.
For the antibody level measurements, the time between the positive SARS-CoV-2 PCR test and the date of blood sampling for antibody analysis as well as, if applicable, the intervals between one or more subsequent vaccinations against SARS-CoV-2 and the blood sampling date were recorded. Antibody levels were measured using the AProof Duo Test (Adversis Pharma, now AP Diagnostics; Leipzig, Germany). In this test, dried blood spot samples are rehydrated and analysed by ELISAs detecting antibodies directed against the nucleocapsid (N) or spike (S) protein of SARS-CoV-2. Antibodies against the N protein are analysed to evaluate immunity generated only by SARS-CoV-2 infection. After infection with SARS-CoV-2, levels of antibodies against the S protein can represent both the consequences of infection (if no additional vaccination is performed) or of the combined humoral immunity generated by infection and subsequent vaccination(s). Between the 6-week observation period of the acute infection and the follow-up after at least 6 months, many trial participants had been vaccinated against SARS-CoV-2. Anti-N antibody levels were quantified as percent of the signal of a positive control consisting of an anti-N antibody pool from five donors collected at different time points starting 2 weeks after PCR-confirmed infection with SARS-CoV-2. This anti-N antibody pool was diluted in the negative control medium at a fixed ratio. The detection was considered negative if below 20% of the positive control, borderline for 20-30% and positive if above 30%. Anti-S antibody protein levels were quantified as binding antibody units per milliliter (BAU/mL; according to the WHO International Standard for anti-SARS-CoV-2 immunoglobulin [human][NIBSC code 20/136]). […]

[7] = test system: COVID-19 patients (PCS symptoms); assay: Generalised Anxiety Disorder 7 (GAD-7) at 6-month follow-up, COVit-2 pilot population; format: in vivo, human; details: pilot population n=50
Description: as §1, §2

COVID-19 patients [8] = assay: Impaired sense of taste in acute COVID-19 (patient interviews, change to baseline), COVit-2 risk factor population; format: in vivo, human; details: for Impaired sense of taste: Persistence (no change), frequency / Impaired sense of taste: Resolution of impairment (return to normal), frequency / Impaired sense of taste: Worsening (new impairment), frequency: number of patients
Description: as §3, §4
(§5) The COVit-2 trial (see Example 2) was expanded to a total of n=900 randomized patients. Of these, n=500 patients had at least one characteristic or underlying medical condition associated with an increased risk of developing severe illness from COVID-19, which was the population that had benefited most from nicotinamide supplementation in the acute phase of the disease (Wätzig & Schreiber 2021, PCT/EP2021/083138) and is hereinafter referred to as ‘risk factor population’.
(§6) In contrast, in the final analysis of n=500 patients of the risk factor population (the primary analysis population for acute COVID-19 in the COVit-2 trial), there was rather a trend favouring placebo, as evidenced by the rates of resolved, constant or newly occurring impairment shown in Table 2 to Table 5 below.
(§7) Here, the efficacy variables “impaired sense of smell” (yes/no) and “impaired sense of taste” (yes/no) from patient interviews represent the broadest and most sensitive approach, as other more specific tests or questions miss aspects of smell or taste that are not explicitly queried and thus may fail to detect significant differences. In the acute phase of the COVit-2 trial, these variables were analyzed using change to baseline, considered as resolution (symptom present at baseline but not at week x), persistence (no change compared to baseline) or worsening (symptom present at week x but not at baseline). The frequency of patients with symptom resolution, persistence or worsening for all weeks by treatment group was compared using the Cochran-Mantel-Haenszel test. Post-hoc tests for each week were calculated using the Fisher Exact test with Benjamini & Hochberg adjustment for multiple testing. The Woolfe test was performed to test for homogeneity of odds ratios across time. […]

COVID-19 patients [9] = assay: Impaired sense of smell at 6 months after COVID-19, COVit-2 risk factor population; format: in vivo, human
Description: as §4, with “At weeks 2, 4 and 6, regular intake of the trial supplements and concomitant supplements and medicaments, respectively, was queried as well as the current COVID-19 symptoms and disease course.” left out
(§8) Approximately 6 months after infection, patients were contacted for follow-up interviews and a large battery of questionnaires and tests including antibody level measurements. […] A validated smell test (University of Pennsylvania Smell Identification Test™; Sensonics/MediSense) was performed by the patient and recorded as patient-reported outcome by a paper questionnaire. […]

[10] = test system: COVID-19 patients (PCS symptoms); assay: University of Pennsylvania Smell Identification Test (UPSIT) at 6-month follow-up, COVit-2 pilot population; format: in vivo, human; details: pilot population n=50
Description: as §1, §2

COVID-19 patients [11] = assay: Impaired sense of smell in acute COVID-19 (patient interviews, change to baseline), COVit-2 risk factor population; format: in vivo, human; details: for Impaired sense of smell: Persistence (no change), frequency / Impaired sense of smell: Resolution of impairment (return to normal), frequency / Impaired sense of smell: Worsening (new impairment), frequency: number of patients
Description: as §3, §4, §5, §6, §7

COVID-19 patients [12] = details: acute phase, baseline until Week 6, mainly at week 2; interim analysis n=402; cited from earlier work
COVID-19 patients [13] = assay: Impaired sense of taste at 6 months after COVID-19, COVit-2 risk factor population; format: in vivo, human
Description: as §4, with “At weeks 2, 4 and 6, regular intake of the trial supplements and concomitant supplements and medicaments, respectively, was queried as well as the current COVID-19 symptoms and disease course.” left out
as §8

[14] = first 50 patients per trial arm
[15] = n=50, negative if below 20% of positive control
[16] = n=50, positive if above 30% of positive control
[17] = n=50, negative if below 22 BAU/mL
[18] = n=50, positive if above 44 BAU/mL
[19] = acute phase, baseline until Week 6
[20] = 6 months after COVID-19, N = 236

NC(=O)c1cccnc1 [Nicotinamide, nicotinamide]
PCS score, mean (COVID-19 patients (PCS)): 3.66
median PHQ-8 score [1]: 4
shortness of breath: patients recovered (COVID-19 patients [2]): 56
proportion of patients with mild cognitive impairment (T3MS score <89) ([3]; patients with increased risk of developing severe COVID-19): 10%
proportion of patients with mild cognitive impairment (T3MS score <89) ([3]; pilot population n=50): 8%
median PSS score [4]: 24
Anti-N antibodies, median [5, 14]: 10% + control
Anti-N antibodies, % negative [5, 15]: 66%
Anti-N antibodies, n negative [5, 15]: 33
Anti-N antibodies, % positive [5, 16]: 28%
Anti-N antibodies, n positive [5, 16]: 14
Anti-S antibodies, median [6, 14]: 813 BAU/mL
Anti-S antibodies, % negative [6, 17]: 2%
Anti-S antibodies, n negative [6, 17]: 1
Anti-S antibodies, % positive [6, 18]: 94%
Anti-S antibodies, n positive [6, 18]: 47
Anti-S antibodies, median ([6]; patients with at least one characteristic or condition associated with increased risk of severe COVID-19): 1,121 BAU/mL
median GAD-7 score [7]: 3
Impaired sense of taste: Persistence (no change), frequency (COVID-19 patients [8]; Week 2): 170
Impaired sense of taste: Resolution of impairment (return to normal), frequency (COVID-19 patients [8]; Week 2): 56
Impaired sense of taste: Worsening (new impairment), frequency (COVID-19 patients [8]; Week 2): 22
Impaired sense of taste: Persistence (no change), frequency (COVID-19 patients [8]; Week 4): 159
Impaired sense of taste: Resolution of impairment (return to normal), frequency (COVID-19 patients [8]; Week 4): 74
Impaired sense of taste: Worsening (new impairment), frequency (COVID-19 patients [8]; Week 4): 15
Impaired sense of taste: Persistence (no change), frequency (COVID-19 patients [8]; Week 6): 157
Impaired sense of taste: Resolution of impairment (return to normal), frequency (COVID-19 patients [8]; Week 6): 83
Impaired sense of taste: Worsening (new impairment), frequency (COVID-19 patients [8]; Week 6): 8
effect on impaired sense of taste (COVID-19 patients [8]; [19]): no beneficial effect
Impaired sense of smell, % of patients (COVID-19 patients [9]; [20]): 11.02%
effect on frequency of impaired sense of smell (COVID-19 patients [9]; after six months): significantly reduced frequencies
proportion of patients with strong microsmia/hyposmia (UPSIT score <26) [10]: 2%
Impaired sense of smell: Persistence (no change), frequency (COVID-19 patients [11]; Week 2): 155
Impaired sense of smell: Resolution of impairment (return to normal), frequency (COVID-19 patients [11]; Week 2): 61
Impaired sense of smell: Worsening (new impairment), frequency (COVID-19 patients [11]; Week 2): 32
Impaired sense of smell: Persistence (no change), frequency (COVID-19 patients [11]; Week 4): 150
Impaired sense of smell: Resolution of impairment (return to normal), frequency (COVID-19 patients [11]; Week 4): 78
Impaired sense of smell: Worsening (new impairment), frequency (COVID-19 patients [11]; Week 4): 20
Impaired sense of smell: Persistence (no change), frequency (COVID-19 patients [11]; Week 6): 141
Impaired sense of smell: Resolution of impairment (return to normal), frequency (COVID-19 patients [11]; Week 6): 92
Impaired sense of smell: Worsening (new impairment), frequency (COVID-19 patients [11]; Week 6): 15
effect on impaired sense of smell (COVID-19 patients [11]; [19]): no beneficial effect
benefit with regard to parameters of physical performance (COVID-19 patients [12]): biologically and statistically significant benefit
Impaired sense of taste, % of patients (COVID-19 patients [13]; [20]): 8.05%
effect on frequency of impaired sense of taste (COVID-19 patients [13]; after six months): significantly reduced frequencies

— patent US20250213549A1, “COMPOSITION COMPRISING NICOTINAMIDE, NICOTINAMIDE PRECURSORS, NICOTINAMIDE METABOLITES OR COMBINATIONS THEREOF FOR PREVENTING OR REDUCING ONE OR MORE POST-ACUTE SYMPTOMS OF INFECTIOUS DISEASES” (CONARIS Research Institute AG, priority 2022, published 2025)
